target: T1, sarkosyl insoluble (SI) α-synuclein (human α-SYN A53T) (Homo sapiens, UniProt P37840, A53T); assay: MJFF-14-6-4-2 conformation specific ELISA of sarkosyl insoluble α-synuclein after compound treatment; format: cell-based; settings: 1 μM compound; protein remaining relative to DMSO control; PFF induced A53T α-synuclein overexpressing HEK293 cells; read-out: Protein Degradation at 1 μM
T1 construct: expressed in transfected cells
Experimental: Targeted degradation of sarkosyl insoluble (SI) α-synuclein via exemplary bifunctional compounds was assessed by MJFF-14-6-4-2 conformation specific ELISA following treatment of PFF induced A53T α-synuclein overexpressing HEK293 cells with 1 μM exemplary compound compared to DMSO vehicle control. Degradation activity of the exemplary compounds of Table 2 is expressed as % DMSO control. […] However, the effect of bifunctional targeting degraders, shown in FIG. 5, required the intact E3 ligase binding domain.
Trex293 (doxycycline inducible) cells stably expressing human α-SYN A53T (monoclonal) were plated in poly-d-lysine coated T-75 tissue culture flasks (4.5×10e6 cells/flask) in DMEM with 10% tet-free FBS, 10 μg/ml blasticidin, and 400 μg/ml zeocin. After an overnight incubation, the cells were induced to express α-SYN by treatment with 1 μg/ml doxycycline (Dox) and exemplary bifunctional compound. After a 24 hour dox induction, the medium on the cells was changed to Opti-MEM followed by treatment with α-SYN pre-formed fibrils** (PFFs)(5 μg/flask) pre-complexed with Lipofectamine 2000 transfection reagent for 4 hours. After PFF treatment, the medium was changed back to DMEM with the supplements described above and exemplary bifunctional compound for 48 hours.
Cell pellets were harvested from each flask using 0.25% trypsin followed by spinning at 500×g for 5 minutes. Each pellet was resuspended in 1 ml cold buffer H [Buffer H-10 mM Tris, 1 mM EGTA, 0.8M NaCl, 10% sucrose, pH7.4 containing 1× protease and phosphatase inhibitors] containing protease and phosphatase inhibitors. The resuspended pellets were incubated on ice for 20 minutes followed by centrifugation at 27,200×g for 20 minutes at 4° C. The supernatants were adjusted to 1% sarkosyl (Sigma) and 1% 2-mercaptoethanol followed by incubation for 1 hour at 37° C. on an orbital shaker set to 400 rpm. The samples were then spun at 150,000×g for 35 minutes at room temperature. The supernatant was removed and saved as the soluble fraction and the insoluble pellet was resuspended in 25 μl tris-buffered saline (TBS). Protein concentrations were determined by NanoDrop, and normalized protein concentrations were analyzed by WES capillary electrophoresis as well as an α-SYN oligomer ELISA.
Recombinant human α-SYN was purchased from Proteos. 1 mg aliquots were supplied at 10 mg/ml in 10 mM Tris, 50 mM NaCl, pH7.6. The aliquot was thawed on ice followed by centrifugation at 4° C. for 10 minutes at 12,000×g to pellet any insoluble material. The supernatant was removed and quantitated on a NanoDrop (A280) using Beer's Law (ε=5960 M-1 cm-1). The concentration was adjusted to 5 mg/ml in PBS followed by vortexing for 3 seconds to mix contents. The mixture was incubated in an orbital shaker set to 37° C. at 1,000 rpm for 7 days followed by aliquoting into individual use vials. Prior to addition to cells, an aliquot was thawed at room temperature, then diluted to 1 mg/ml with phosphate-buffered saline (PBS) followed by sonication for 1 minute with a probe sonicator (output 1; 90% duty cycle) in a chem hood.
Coming Costar high bind black well plates were coated with MJFR 14-6-4-2 (Abcam) at 1 μg/ml for 1 hour at 37° C. followed by washing with 1×TBS+0.1% tween-20 (TBS-T) then blocking with 3% bovine serum albumin (BSA) in TBS. After re-washing, samples were added after dilution in diluent (1% BSA/TBS-T). Non-sonicated PFF was used to generate a standard curve. The plates were incubated with sample overnight at 4° C. with shaking. The following day alkaline phosphatase (AP) conjugated MJFR 14-6-4-2 was added to the plate without washing followed by incubation at room temperature for 1 hour with shaking or rocking. The plates were then re-washed and substrate (CDP star alkaline phosphatase detection reagent) was added followed by a 30 minute incubation at room temperature. The plate was read on a luminescence plate reader. The counts were log transformed and read off the standard curve. […]

Structure (SMILES) | remaining activity at 1 µM [%]
Cc1ncsc1-c1ccc([C@H](C)NC(=O)[C@@H]2C[C@@H](O)CN2C(=O)[C@@H](NC(=O)COCCOCCOCCOCCOCCOc2ccc3c(c2)Sc2cc([N+](=O)[O-])ccc2N3)C(C)(C)C)cc1 [Exemplary Compound 11, (2S,4R)-1-((S)-2-(tert-butyl)-20-((7-nitro-10H-phenothiazin-3-yl)oxy)-4-oxo-6,9,12,15,18-pentaoxa-3-azaicosanoyl)-4-hydroxy-N-((S)-1-(4-(4-methylthiazol-5-yl)phenyl)ethyl)pyrrolidine-2-carboxamide] | > 120
O=C1CCC(N2C(=O)c3ccc(N4CCN(CCN5CCC(O[C@H]6C[C@H](Oc7ccc8c(c7)Sc7cc([N+](=O)[O-])ccc7N8)C6)CC5)CC4)cc3C2=O)C(=O)N1 (stereo partly drawn) [Exemplary Compound 18, 2-(2,6-dioxo-3-piperidyl)-5-[4-[2-[4-[3-[(7-nitro-10H-phenothiazin-3-yl)oxy]cyclobutoxy]-1-piperidyl]ethyl]piperazin-1-yl]isoindoline-1,3-dione] | 70 to 120
O=C1CCC(N2C(=O)c3ccc(OCCCCCN4CCC(O[C@H]5C[C@H](Oc6ccc7c(c6)Sc6cc([N+](=O)[O-])ccc6N7)C5)CC4)cc3C2=O)C(=O)N1 (stereo partly drawn) [Exemplary Compound 19, 2-(2,6-dioxo-3-piperidyl)-5-[5-[4-[3-[(7-nitro-10H-phenothiazin-3-yl)oxy]cyclobutoxy]-1-piperidyl]pentoxy]isoindoline-1,3-dione] | 35 to 70
O=C1CCC(N2C(=O)c3ccc(OCCCCCN4CCC(OC5CN(CCCN6c7ccccc7Sc7ccccc76)C5)CC4)cc3C2=O)C(=O)N1 (stereo not drawn) [Exemplary Compound 22, 2-(2,6-dioxo-3-piperidyl)-5-[5-[4-[1-(3-phenothiazin-10-ylpropyl)azetidin-3-yl]oxy-1-piperidyl]pentoxy]isoindoline-1,3-dione] | 35 to 70
CN(C)c1ccc(-c2nc3ccc(O[C@H]4C[C@H](OCCCN5CCN(c6ccc7c(c6)C(=O)N(C6CCC(=O)NC6=O)C7=O)CC5)C4)cc3s2)cc1 (stereo partly drawn) [Exemplary Compound 24, 2-(2,6-dioxopiperidin-3-yl)-5-(4-[3-[(1r,3r)-3-([2-[4-(dimethylamino)phenyl]-1,3-benzothiazol-6-yl]oxy)cyclobutoxy]propyl]piperazin-1-yl)-2,3-dihydro-1H-isoindole-1,3-dione] | > 120
CN(C)c1ccc(-c2nc3ccc(O[C@H]4C[C@H](OC5CCN(CCCCCOc6ccc7c(c6)C(=O)N(C6CCC(=O)NC6=O)C7=O)CC5)C4)cc3s2)cc1 (stereo partly drawn) [Exemplary Compound 27, 2-(2,6-dioxopiperidin-3-yl)-5-[(5-[4-[(1r,3r)-3-([2-[4-(dimethylamino)phenyl]-1,3-benzothiazol-6-yl]oxy)cyclobutoxy]piperidin-1-yl]pentyl)oxy]-2,3-dihydro-1H-isoindole-1,3-dione] | > 120

More lines, now with the values ahead:

remaining activity at 1 µM [%] | Structure (SMILES)
< 35 | CNc1ccc(-c2nc3ccc(OCCOCCOCC(=O)N[C@H](C(=O)N4C[C@H](O)C[C@H]4C(=O)N[C@@H](C)c4ccc(-c5scnc5C)cc4)C(C)(C)C)cc3s2)cc1 [Exemplary Compound 1, (2S,4R)-1-[(2S)-3,3-dimethyl-2-[[2-[2-[2-[[2-[4-(methylamino)phenyl]-1,3-benzothiazol-6-yl]oxy]ethoxy]ethoxy]acetyl]amino]butanoyl]-4-hydroxy-N-[(1S)-1-[4-(4-methylthiazol-5-yl)phenyl]ethyl]pyrrolidine-2-carboxamide]
35 to 70 | CNc1ccc(-c2nc3ccc(OCCOCCOCCOCCOCC(=O)N[C@H](C(=O)N4C[C@H](O)C[C@H]4C(=O)N[C@@H](C)c4ccc(-c5scnc5C)cc4)C(C)(C)C)cc3s2)cc1 [Exemplary Compound 3, (2S,4R)-1-((S)-2-(tert-butyl)-17-((2-(4-(methylamino)phenyl)benzo[d]thiazol-6-yl)oxy)-4-oxo-6,9,12,15-tetraoxa-3-azaheptadecanoyl)-4-hydroxy-N-((S)-1-(4-(4-methylthiazol-5-yl)phenyl)ethyl)pyrrolidine-2-carboxamide]
< 35 | CNc1ccc(-c2nc3ccc(OCCOCCOCCOCCOCCOCC(=O)N[C@H](C(=O)N4C[C@H](O)C[C@H]4C(=O)N[C@@H](C)c4ccc(-c5scnc5C)cc4)C(C)(C)C)cc3s2)cc1 [Exemplary Compound 4, (2S,4R)-1-((S)-2-(tert-butyl)-20-((2-(4-(methylamino)phenyl)benzo[d]thiazol-6-yl)oxy)-4-oxo-6,9,12,15,18-pentaoxa-3-azaicosanoyl)-4-hydroxy-N-((S)-1-(4-(4-methylthiazol-5-yl)phenyl)ethyl)pyrrolidine-2-carboxamide]
70 to 120 | Cc1ncsc1-c1ccc([C@H](C)NC(=O)[C@@H]2C[C@@H](O)CN2C(=O)[C@@H](NC(=O)COCCOCCOc2ccc3c(c2)Sc2cc([N+](=O)[O-])ccc2N3)C(C)(C)C)cc1 [Exemplary Compound 8, (2S,4R)-1-[(2S)-3,3-dimethyl-2-[[2-[2-[2-[(7-nitro-10H-phenothiazin-3-yl)oxy]ethoxy]ethoxy]acetyl]amino]butanoyl]-4-hydroxy-N-[(1S)-1-[4-(4-methylthiazol-5-yl)phenyl]ethyl]pyrrolidine-2-carboxamide]
35 to 70 | O=C1CCC(N2C(=O)c3ccc(OCCOCCOCCOCCOCCOc4ccc5c(c4)Sc4cc([N+](=O)[O-])ccc4N5)cc3C2=O)C(=O)N1 (stereo not drawn) [Exemplary Compound 14, 2-(2,6-dioxopiperidin-3-yl)-5-((14-((7-nitro-10H-phenothiazin-3-yl)oxy)-3,6,9,12-tetraoxatetradecyl)oxy) isoindoline-1,3-dione]
35 to 70 | CN(CCCN1c2ccccc2Sc2ccccc21)CCOCCOCCOc1ccc2c(c1)C(=O)N(C1CCC(=O)NC1=O)C2=O (stereo not drawn) [Exemplary Compound 15, 5-(2-(2-(2-((3-(10H-phenothiazin-10-yl)propyl)(methyl)amino)ethoxy)ethoxy)ethoxy)-2-(2,6-dioxopiperidin-3-yl)isoindoline-1,3-dione]
70 to 120 | CN(CCCN1c2ccccc2Sc2ccccc21)CCOCCOCCOCCOc1ccc2c(c1)C(=O)N(C1CCC(=O)NC1=O)C2=O (stereo not drawn) [Exemplary Compound 16, 2-(2,6-dioxo-3-piperidyl)-5-[2-[2-[2-[2-[methyl(3-phenothiazin-10-ylpropyl)amino]ethoxy]ethoxy]ethoxy]ethoxy]isoindoline-1,3-dione]
35 to 70 | CN(C)c1ccc2c(c1)Sc1cc(OCCOCCOCCOCCOCCOc3ccc4c(c3)C(=O)N(C3CCC(=O)NC3=O)C4=O)ccc1N2 (stereo not drawn) [Exemplary Compound 21, 5-((14-((7-(dimethylamino)-10H-phenothiazin-3-yl)oxy)-3,6,9,12-tetraoxatetradecyl)oxy)-2-(2,6-dioxopiperidin-3-yl)isoindoline-1,3-dione]
35 to 70 | COc1ccc2nc(-c3ccc(N4CC(OC5CCN(CCN6CCN(c7ccc8c(c7)C(=O)N(C7CCC(=O)NC7=O)C8=O)CC6)CC5)C4)cc3)sc2c1 (stereo not drawn) [Exemplary Compound 26, 2-(2,6-dioxopiperidin-3-yl)-5-(4-[2-[4-([1-[4-(6-methoxy-1,3-benzothiazol-2-yl)phenyl]azetidin-3-yl]oxy)piperidin-1-yl]ethyl]piperazin-1-yl)-2,3-dihydro-1H-isoindole-1,3-dione]

From patent US12594264B2, “Modulators of alpha-synuclein proteolysis and associated methods of use” (Arvinas Operations, Inc., priority 2018, dated 2026)
